Converted amounts (≈) assume the structure as drawn. The source made the active and inactive calls. No cut-off for these calls is given here.
Test system: Lepidoptera
Assay: Insecticidal activity against Lepidoptera
Assay type: functional, organism-based
Details: not given

| Structure (SMILES) | Activity |
| --- | --- |
| O=[N+]([O-])/N=C1\NCCN1Cc1ccc(Cl)nc1 [IMIDACLOPRID] | inactive |

Test system: Nephotettix cincticeps
Assay: Insecticidal activity against Nephotettix cincticeps (green rice leafhopper) infested on rice leaf assessed as increase in mortality at 1000 ppm after 5 days
Assay type: functional, organism-based
Details: not given

| Structure (SMILES) | Activity |
| --- | --- |
| N#C/C=C1\NCCN1Cc1ccc(Cl)nc1 | inactive |
| CCOC(=O)/C=C1\NCCN1Cc1ccc(Cl)nc1 | inactive |

Test system: not listed separately
Assay: Toxicity in po dosed Rattus norvegicus (rat)
Assay type: organism-based
Details: in vivo

| Structure (SMILES) | LD50 |
| --- | --- |
| O=[N+]([O-])NC1=NCCN1Cc1ccc(Cl)nc1 [IMIDACLOPRID] | 450 mg/kg |

Test system: not listed separately
Assay: Toxicity in Leuciscus idus (golden orfe) after 96 hr
Assay type: organism-based
Details: in vivo

| Structure (SMILES) | LC50 at 96 h |
| --- | --- |
| O=[N+]([O-])NC1=NCCN1Cc1ccc(Cl)nc1 [IMIDACLOPRID] | 237 µg/mL (≈ 927 µM) |

Test system: not listed separately
Assay: Toxicity in Rattus norvegicus (rat) […]
Assay type: organism-based
Details: in vivo

| Structure (SMILES) | LD50 |
| --- | --- |
| O=[N+]([O-])NC1=NCCN1Cc1ccc(Cl)nc1 [IMIDACLOPRID] | > 5000 mg/kg |

Test system: Nephotettix cincticeps
Assay: Insecticidal activity against Nephotettix cincticeps (green rice leafhopper) infested on rice leaf assessed as mortality after 5 days
Assay type: functional
Details: not given

| Structure (SMILES) | LC90 |
| --- | --- |
| O=[N+]([O-])/N=C1\NCCN1Cc1ccc(Cl)nc1 [IMIDACLOPRID] | 0.32 ppm |
| N#CC(C#N)=C1NCCN1Cc1ccc(Cl)nc1 | 40 ppm |
| CC(=O)N1CCN(Cc2ccc(Cl)nc2)/C1=N/[N+](=O)[O-] | 0.32 ppm |
| C=CCN1CCN(Cc2ccc(Cl)nc2)/C1=N/[N+](=O)[O-] | 0.32 ppm |
| CN1CCN(Cc2ccc(Cl)nc2)/C1=N/[N+](=O)[O-] | 1.6 ppm |
| N=C1NCCN1Cc1ccc(Cl)nc1 [DESNITROIMIDACLOPRID] | 200 ppm |
| CC(C)N1CCN(Cc2ccc(Cl)nc2)/C1=N/[N+](=O)[O-] | 40 ppm |
| C#CCN1CCN(Cc2ccc(Cl)nc2)/C1=N/[N+](=O)[O-] | 0.32 ppm |
| CCN1CCN(Cc2ccc(Cl)nc2)/C1=N/[N+](=O)[O-] | 8 ppm |
| CCCN1CCN(Cc2ccc(Cl)nc2)/C1=N/[N+](=O)[O-] | 0.32 ppm |
| O=[N+]([O-])/C=C1\NCCN1Cc1ccc(Cl)nc1 | 0.32 ppm |
| CCCCN1CCN(Cc2ccc(Cl)nc2)/C1=N/[N+](=O)[O-] | 1.6 ppm |
| O=C(c1ccccc1)N1CCN(Cc2ccc(Cl)nc2)/C1=N/[N+](=O)[O-] | 0.32 ppm |
| COP(=S)(OC)Oc1ccc([N+](=O)[O-])c(C)c1 [FENITROTHION] | 200 ppm |
| O=C1NCCN1Cc1ccc(Cl)nc1 | 1000 ppm |
| N#CN1CCN(Cc2ccc(Cl)nc2)/C1=N/[N+](=O)[O-] | 0.32 ppm |
| CCCCCN1CCN(Cc2ccc(Cl)nc2)/C1=N/[N+](=O)[O-] | 40 ppm |
